Results on twelve compounds are retold here after US6680322B2, “Compounds specific to adenosine A1 receptors and uses thereof” (OSI Pharmaceuticals, Inc., priority 1999, dated 2004).

Data set [1] addresses T1, human A1 adenosine receptor (Homo sapiens, UniProt P30542).
T1 sequence (P30542 1-326): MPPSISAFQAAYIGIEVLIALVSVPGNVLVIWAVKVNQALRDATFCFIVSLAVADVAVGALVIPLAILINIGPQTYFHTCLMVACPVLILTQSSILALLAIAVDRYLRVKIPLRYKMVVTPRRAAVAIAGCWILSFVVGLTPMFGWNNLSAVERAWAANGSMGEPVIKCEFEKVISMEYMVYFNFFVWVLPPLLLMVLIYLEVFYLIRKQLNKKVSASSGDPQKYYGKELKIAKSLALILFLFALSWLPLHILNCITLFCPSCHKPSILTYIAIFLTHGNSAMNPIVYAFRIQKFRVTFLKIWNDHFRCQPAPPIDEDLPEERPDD
As to conditions: cited from earlier work.

Data set [2] has as its target T2, human A2a receptor subtype (Homo sapiens, UniProt P29274).
T2 construct: expressed in transfected cells; host or cells: HEK-293 (Cadus clone #5)
In words: Adenosine 2a receptor subtype competition radioligand binding ([3H]CGS-21680, HEK293 membranes). As to conditions: Table 13; % activity @ 10 μM (footnote 8).

Data set [3] has as its target T3, human A1 receptor subtype (Homo sapiens, UniProt P30542).
T3 sequence (P30542 1-326): T1 sequence (P30542 1-326)

In data set [4] the target is T4, human A3 receptor subtype (Homo sapiens, UniProt P0DMS8).
T4 construct: expressed in transfected cells; host or cells: HEK293
T4 sequence (P0DMS8 1-318): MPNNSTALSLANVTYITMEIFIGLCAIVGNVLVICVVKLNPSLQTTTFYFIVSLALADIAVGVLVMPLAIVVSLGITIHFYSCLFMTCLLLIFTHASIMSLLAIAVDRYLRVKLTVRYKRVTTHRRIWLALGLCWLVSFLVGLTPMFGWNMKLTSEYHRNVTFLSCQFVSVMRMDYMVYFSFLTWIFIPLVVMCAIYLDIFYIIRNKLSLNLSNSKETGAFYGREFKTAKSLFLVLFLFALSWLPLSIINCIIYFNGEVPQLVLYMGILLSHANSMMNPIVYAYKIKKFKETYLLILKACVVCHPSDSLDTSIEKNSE
In words: Adenosine 3 receptor competition radioligand binding ([125I]AB-MECA, HEK293 membranes). As to conditions: Table 13; % activity @ 10 μM (footnote 8).

T2 sequence (P29274 whole entry): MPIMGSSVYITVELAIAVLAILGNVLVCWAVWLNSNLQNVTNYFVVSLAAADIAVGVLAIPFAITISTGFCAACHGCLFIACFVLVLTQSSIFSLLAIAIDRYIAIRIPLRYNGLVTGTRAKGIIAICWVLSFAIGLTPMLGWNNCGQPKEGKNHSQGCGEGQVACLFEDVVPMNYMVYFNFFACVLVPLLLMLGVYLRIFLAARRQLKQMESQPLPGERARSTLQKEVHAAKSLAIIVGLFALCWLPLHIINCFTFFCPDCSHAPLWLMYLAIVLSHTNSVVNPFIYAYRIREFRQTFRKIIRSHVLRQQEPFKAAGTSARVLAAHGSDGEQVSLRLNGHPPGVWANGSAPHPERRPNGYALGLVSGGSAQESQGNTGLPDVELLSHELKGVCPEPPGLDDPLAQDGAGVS

With `CC(Cc1ccccc1)Nc1ncnc2c1ncn2[C@@H]1O[C@H](CO)[C@@H](O)[C@H]1O` (single isomer, unassigned; (-)) [PIA, (−)-N6-(2-phenylisopropyl)-adenosine], the reported affinity result in data set [1] was “approximately 50 nM”. Regarding `CNC(=O)NCCCNc1nc(-c2ccccc2)nc2[nH]c(C)c(C)c12` [Compound 1310], the “A2a binding, % activity” value in data set [2] turned out to be 76%.

As for `Cc1[nH]c2nc(-c3ccccc3)nc(NCCNC(=O)C3(N)CC3)c2c1C` [Compound 1313], in data set [2], the “A2a binding, % activity” value is reported as 65%. In data set [3] (Table 13, % activity @ 10 μM (footnote 8)), the “A1 binding, % activity” value was 30%. Take `O[C@H]1CC[C@H](Nc2nc(-c3ccncc3)nc3[nH]ccc23)CC1` [Compound 1321]: the “A3 binding, % activity” value in data set [4] worked out at 54%^8. In the case of `O[C@H]1CC[C@H](Nc2nc(-c3ccccc3)nc3[nH]c(CN4CCOCC4)cc23)CC1` [Compound 1503], the “Ki-A1 (selectivity versus A2a, A2b, A3)” value in data set [3] (Table 15) was “* (at least 10 times more selective than other three subtypes)”. Turning to `NC(=O)[C@@H]1CCCN1c1nc(-c2ccccc2)nc2[nH]ccc12` [Compound 1602], the melting point was 236 to 238 °C. On the same count and under the same terms, to `COCc1cc2c(N3CCCC3C(N)=O)nc(-c3ccccc3)nc2[nH]1` (stereo not shown) [Compound 1605] belongs 213 to 215 °C. On the same count and under the same terms, then `NC(=O)[C@@H]1C[C@H](O)CN1c1nc(-c2ccccc2)nc2[nH]ccc12` [Compound 1606, 4-Hydroxy-1-(2-phenyl-7H-pyrrolo[2,3-d]pyrimidin-4-yl]-pyrrolidine-2-carboxylic Acid Amide], with 268 to 271 °C; and `NC(=O)C1CCCN1c1nc(-c2ccccc2)nc2[nH]c(C(=O)O)cc12` (stereo not shown) [Compound 1619, [4-(2-Carbamoylpyrrolidin-1-yl)-2-phenyl-7H-pyrrolo[2,3-d]pyrimidine-6-carboxylic Acid]], with 220 °C (dec.). In turn, `COC(=O)c1cc2c(NC3CCC(O)CC3)nc(-c3ccccc3)nc2[nH]1` (stereo not shown) [Compound 1627, 4-(4-Hydroxy-cyclohexylamino)-2-phenyl-7H-pyrrolo[2,3-d]pyrimidine-6-carboxylic Acid Methyl Ester] registered a melting point of 225 to 227 °C. `NC(=O)c1cc2c(NC3CCC(O)CC3)nc(-c3ccccc3)nc2[nH]1` (stereo not shown) [Compound 1630, 4-(4-Hydroxy-cyclohexylamino)-2-phenyl-7H-pyrrolo[2,3-d]pyrimidine-6-carboxylic Acid Amide]: the melting point is 210 to 220 °C (dec.).

`CC(=O)NCCNc1nc(-c2ccccc2)nc2[nH]c(COc3ccccc3)cc12` [Example 17] displayed a melting point of 196 to 197 °C.

Usually melting point stands for the temperature, or range, at which the solid turns liquid.
